From patent US20260042753A1 (Merck Patent GmbH, priority 2019, published 2026)
pIC50: −log10 of the molar value. Where a name gives a salt, the structure may show the parent alone. Read-outs that look alike come from different tables or passages of the source.

How the values were obtained:
[1] = target: c-Kit(V654A) (Homo sapiens, UniProt P10721, V654A); assay: c-Kit(V654A) assay; assay type: biochemical
How it was run: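 Radiometric filter-binding read-out: after 3% phosphoric acid stop, peptide-incorporated 33P on filtermat scintillation-counted. Enzyme: human c-Kit V654A, residues 544–end, N-terminal GST fusion.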

[2] = target: mutant cKIT (560-576 and V654A) in GIST430/654 cell line (Homo sapiens (Human), UniProt P10721, DEL560-576/V654A); assay: Cellular testing of cKIT mutant inhibitors: phospho-Y307-cKIT Luminex assay in GIST430/654 cells; assay type: cell-based; details: read-out: GIST 430/654 IC50
How it was run: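 Autophosphorylation of mutant cKIT at Y307 was quantified by a Luminex bead sandwich assay (total-cKIT capture, phosphospecific detection) after 45 min compound exposure in GIST430/654 cells, cultured in medium containing 100 nM imatinib. Signals were normalised to solvent (0.3% DMSO) controls and dose-response curves fitted for IC50.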

[3] = Table 1, cKIT autophosphorylation, compounds 45 min
[4] = Table 2, corresponding triazole derivatives

Chain of mutant cKIT (560-576 and V654A) in GIST430/654 cell line (P10721 other isoform, or with tags, fused parts or gaps V654A/del 1-25/del 560-576 limits assumed): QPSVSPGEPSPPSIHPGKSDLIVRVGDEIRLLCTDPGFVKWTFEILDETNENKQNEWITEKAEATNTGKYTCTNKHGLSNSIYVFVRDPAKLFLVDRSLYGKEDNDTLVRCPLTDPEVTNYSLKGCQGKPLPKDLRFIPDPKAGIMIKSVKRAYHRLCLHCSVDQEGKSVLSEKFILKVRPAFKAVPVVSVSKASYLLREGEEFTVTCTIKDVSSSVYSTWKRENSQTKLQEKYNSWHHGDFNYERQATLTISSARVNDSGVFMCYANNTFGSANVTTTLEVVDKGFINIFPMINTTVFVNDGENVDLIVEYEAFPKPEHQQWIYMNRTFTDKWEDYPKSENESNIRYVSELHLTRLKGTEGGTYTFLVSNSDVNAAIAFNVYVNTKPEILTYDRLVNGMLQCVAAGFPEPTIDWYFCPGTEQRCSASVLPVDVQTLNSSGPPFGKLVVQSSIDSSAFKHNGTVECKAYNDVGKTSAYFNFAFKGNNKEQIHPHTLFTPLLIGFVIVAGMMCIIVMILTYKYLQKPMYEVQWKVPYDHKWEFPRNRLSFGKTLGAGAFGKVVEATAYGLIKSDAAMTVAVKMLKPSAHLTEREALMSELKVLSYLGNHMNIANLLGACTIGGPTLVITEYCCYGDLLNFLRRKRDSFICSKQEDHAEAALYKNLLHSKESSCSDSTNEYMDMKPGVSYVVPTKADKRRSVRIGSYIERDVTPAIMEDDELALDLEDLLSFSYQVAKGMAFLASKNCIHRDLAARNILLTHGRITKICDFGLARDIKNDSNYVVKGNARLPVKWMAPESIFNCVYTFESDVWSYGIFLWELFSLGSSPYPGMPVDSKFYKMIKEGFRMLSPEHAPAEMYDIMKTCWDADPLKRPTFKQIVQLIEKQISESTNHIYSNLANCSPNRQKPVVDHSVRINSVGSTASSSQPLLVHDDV

pIC50 ([1]; Table 1, 200 μM ATP) | pIC50 [2, 3] | pIC50 [1, 4] | pIC50 [2, 4] | Structure (SMILES)
9.22 | 7.38 | – | – | COCCOc1cc2[nH]nc(-c3cc(-c4ccc(C(=O)N5CCS(=O)(=O)CC5C)cc4)no3)c2cc1F (stereo not shown) [A121, 4-(4-{5-[5-fluoro-6-(2-methoxyethoxy)-1H-indazol-3-yl]-1,2-oxazol-3-yl}benzoyl)-3-methyl-1lambda6-thiomorpholine-1,1-dione]
8.66 | 6.80 | – | – | COc1cc2[nH]nc(-c3cc(-c4ccc(C(=O)N5C[C@H]6COC[C@H]6C5)cc4)no3)c2cc1F [A220, {4-[5-(5-Fluoro-6-methoxy-1H-indazol-3-yl)-isoxazol-3-yl]-phenyl}-(cis)-tetrahydro-furo[3,4-c]pyrrol-5-yl-methanone]
8.72 | 6.64 | – | – | COCCOc1cc2[nH]nc(-c3cc(-c4ccc(N5CC[C@H]6[C@@H]5CCN6C)cc4)no3)c2cc1F (relative stereo) [A125, 3-(3-{4-[(cis)-4-methyl-octahydropyrrolo[3,2-b]pyrrol-1-yl]phenyl}-1,2-oxazol-5-yl)-5-fluoro-6-(2-methoxyethoxy)-1H-indazole]
9.00 | 6.89 | – | – | COCCOc1cc2[nH]nc(-c3cc(-c4ccc(OCCN5CCN(C)CC5)cc4)no3)c2cc1F [A133, 5-fluoro-6-(2-methoxyethoxy)-3-(3-{4-[2-(4-methylpiperazin-1-yl)ethoxy]phenyl}-1,2-oxazol-5-yl)-1H-indazole]
9.26 | 7.74 | – | – | COCCOc1cc2[nH]nc(-c3cc(-c4ccc(C(=O)N5Cc6ccncc6C5)cc4)no3)c2cc1F [A183, 5-fluoro-6-(2-methoxyethoxy)-3-[3-(4-{1H,2H,3H-pyrrolo[3,4-c]pyridine-2-carbonyl}phenyl)-1,2-oxazol-5-yl]-1H-indazole]
9.06 | 7.21 | – | – | COCCOc1cc2[nH]nc(-c3cc(-c4ccc(C(=O)N5CC(N6CCOCC6=O)C5)cc4)no3)c2cc1F [A204, 4-[1-(4-{5-[5-fluoro-6-(2-methoxyethoxy)-1H-indazol-3-yl]-1,2-oxazol-3-yl}benzoyl)azetidin-3-yl]morpholin-3-one]
8.89 | 7.41 | – | – | COCCOc1cc2[nH]nc(-c3cc(-c4ccc(C(=O)N5CC(N6CCO[C@H](C)C6)C5)cc4)no3)c2cc1F [A211, 5-fluoro-6-(2-methoxyethoxy)-3-[3-(4-{3-[(2R)-2-methylmorpholin-4-yl]azetidine-1-carbonyl}phenyl)-1,2-oxazol-5-yl]-1H-indazole]
9.05 | 7.27 | – | – | COCCOc1cc2[nH]nc(-c3cc(-c4ccc(C(=O)N5CC(c6ccncn6)C5)cc4)no3)c2cc1F [A172, 5-fluoro-6-(2-methoxyethoxy)-3-(3-{4-[3-(pyrimidin-4-yl)azetidine-1-carbonyl]phenyl}-1,2-oxazol-5-yl)-1H-indazole]
9.19 | 7.36 | – | – | COCCOc1cc2[nH]nc(-c3cc(-c4ccc(C(=O)N5C[C@@H]6C[C@H]5CO6)cc4)no3)c2cc1F [A162, 5-fluoro-6-(2-methoxyethoxy)-3-(3-{4-[(1S,4S)-2-oxa-5-azabicyclo[2.2.1]heptane-5-carbonyl]phenyl}-1,2-oxazol-5-yl)-1H-indazole]
8.74 | 7.15 | – | – | COCCOc1cc2[nH]nc(-c3cc(-c4ccc(C(=O)N5CC[C@H]5C(C)(C)O)cc4)on3)c2cc1F [A148, (4-{3-[5-fluoro-6-(2-methoxy-ethoxy)-1H-indazol-3-yl]-isoxazol-5-yl}-phenyl)-[(S)-2-(1-hydroxy-1-methyl-ethyl)-azetidin-1-yl]-methanone]
8.96 | 7.46 | – | – | COCCOc1cc2[nH]nc(-c3cc(-c4ccc(C(=O)N(C)C5CC5)cc4)no3)c2cc1F [A31, N-cyclopropyl-4-{5-[5-fluoro-6-(2-methoxyethoxy)-1H-indazol-3-yl]-1,2-oxazol-3-yl}-N-methylbenzamide]
9.23 | 7.07 | – | – | COCCOc1cc2[nH]nc(-c3cc(-c4ccc(C(=O)N5CCN(CC6CC6)CC5)cc4)no3)c2cc1F [A179, 3-(3-{4-[4-(cyclopropylmethyl)piperazine-1-carbonyl]phenyl}-1,2-oxazol-5-yl)-5-fluoro-6-(2-methoxyethoxy)-1H-indazole]
8.06 | 6.89 | – | – | C[C@H]1CN(C)CCN1C(=O)c1ccc(-c2cc(-c3n[nH]c4cc(-c5cnn(C)c5)ccc34)on2)cc1 [A9, 3-(3-{4-[(2S)-2,4-dimethylpiperazine-1-carbonyl]phenyl}-1,2-oxazol-5-yl)-6-(1-methyl-1H-pyrazol-4-yl)-1H-indazole]
8.96 | 7.21 | – | – | COCCOc1cc2[nH]nc(-c3cc(-c4ccc(C(=O)N5CC(N6CCCC6)C5)cc4)no3)c2cc1F [A178, 5-fluoro-6-(2-methoxyethoxy)-3-(3-{4-[3-(pyrrolidin-1-yl)azetidine-1-carbonyl]phenyl}-1,2-oxazol-5-yl)-1H-indazole]
9.12 | 6.80 | – | – | COCCOc1cc2[nH]nc(-c3cc(-c4ccc(C(=O)N5CC[S+]([O-])CC5)cc4)no3)c2cc1F [A78, 4-(4-{5-[5-fluoro-6-(2-methoxyethoxy)-1H-indazol-3-yl]-1,2-oxazol-3-yl}benzoyl)-1lambda4-thiomorpholin-1-one]
9.07 | 7.37 | – | – | COCCOc1cc2[nH]nc(-c3cc(-c4ccc(C(=O)N5CCN(C6CCOC6)CC5)cc4)no3)c2cc1F (stereo not shown) [A175, 5-fluoro-6-(2-methoxyethoxy)-3-(3-{4-[4-(oxolan-3-yl)piperazine-1-carbonyl]phenyl}-1,2-oxazol-5-yl)-1H-indazole]
10.05 | 7.00 | – | – | [2H]C1([2H])NC([2H])([2H])C([2H])([2H])N(C(=O)c2ccc(-c3cc(-c4n[nH]c5cc(OCCOC)c(F)cc45)on3)cc2)C1([2H])[2H] [A232, 5-fluoro-6-(2-methoxyethoxy)-3-(3-{4-[(2,2,3,3,5,5,6,6-^2H8)piperazine-1-carbonyl]phenyl}-1,2-oxazol-5-yl)-1H-indazole hydrochloride]
– | – | 7.82 | 6.08 | COCCOc1cc2[nH]nc(-c3cn(-c4ccc(C(=O)N5CCN(C)CC5)cc4)nn3)c2cc1F [reference compound]
8.80 | 7.26 | – | – | COCCOc1cc2[nH]nc(-c3cc(-c4ccc(C(=O)N5CCN(C6COC6)C[C@H]5C)cc4)no3)c2cc1F [A190, 5-fluoro-6-(2-methoxyethoxy)-3-(3-{4-[(2R)-2-methyl-4-(oxetan-3-yl)piperazine-1-carbonyl]phenyl}-1,2-oxazol-5-yl)-1H-indazole]
9.27 | 7.42 | – | – | COCCOc1cc2[nH]nc(-c3cc(-c4ccc(C(=O)N5C[C@H]6C[C@@H]5CO6)cc4)no3)c2cc1F [A163, 5-fluoro-6-(2-methoxyethoxy)-3-(3-{4-[(1R,4R)-2-oxa-5-azabicyclo[2.2.1]heptane-5-carbonyl]phenyl}-1,2-oxazol-5-yl)-1H-indazole]
8.59 | 6.49 | – | – | COCCOc1cc2[nH]nc(-c3cc(-c4ccc(C(=O)NCCN(C)C)cc4)no3)c2cc1F [A72, N-[2-(dimethylamino)ethyl]-4-{5-[5-fluoro-6-(2-methoxyethoxy)-1H-indazol-3-yl]-1,2-oxazol-3-yl}benzamide]
9.20 | 6.89 | – | – | COCCOc1cc2[nH]nc(-c3cc(-c4ccc(C(=O)N5CC(n6ccnc6)C5)cc4)no3)c2cc1F [A85, 5-fluoro-3-(3-{4-[3-(1H-imidazol-1-yl)azetidine-1-carbonyl]phenyl}-1,2-oxazol-5-yl)-6-(2-methoxyethoxy)-1H-indazole]

Structure (SMILES) | pIC50 ([1]; Table 1, 200 μM ATP) | pIC50 [2, 3] | pIC50 [1, 4] | pIC50 [2, 4]
COCCOc1cc2[nH]nc(-c3cc(-c4ccc(C(=O)N5CC6CC(C5)O6)cc4)no3)c2cc1F [A161, 5-fluoro-6-(2-methoxyethoxy)-3-[3-(4-{6-oxa-3-azabicyclo[3.1.1]heptane-3-carbonyl}phenyl)-1,2-oxazol-5-yl]-1H-indazole] | 9.35 | 7.40 | – | –
